{"source": "patent US20120225123A1", "about": "“Use of Synergistic Combinations of an Avermectin and an Antineoplastic Compounds for the Treatment of Hematological Malignancies” (UNIVERSITY HEALTH NETWORK, priority 2009, published 2012)", "key": {"OCI-AML2 cells [1]": {"system": "OCI-AML2 cells", "assay": "Cell death, viability and cell cycle in OCI-AML2 cells", "format": "cell-based, human", "conditions": "for effect of calcium chelation on IVM-induced cell death: chelation of intra and extracellular calcium", "procedure": "Cell growth and viability was assessed by the MTS assay (Promega, Madison, Wis.) according to the manufacturer's instructions and as previously described.^12 Cell death was measured by Annexin V-fluoroscein isothiocyanate (FITC) and Propidium Iodide (PI; Biovision Research Products, Mountain View, Calif.) staining and flow cytometry according to the manufacturer's instructions and as previously described.^13 To identify CD34+ cells, a normal PBSC sample was co-stained with PE-anti-CD34+ (Beckman Coulter, Marseille France), and APC-anti-CD45 (Becton Dickenson, San Jose Calif.).\nCell cycle analysis was performed as described previously.^15 Briefly, cells were harvested, washed with cold PBS, and resuspended in 80% cold ethanol. Cells were then treated with 100 ng/mL DNase-free RNase A (Invitrogen) at 37° C. for 30 min, washed with cold PBS, and resuspended in PBS with 50 μg/mL propidium iodide. DNA content was analyzed by flow cytometry (FACSCalibur; Becton Dickinson). The percentage of cells in each phase of the cell cycle was calculated with FlowJo version 8.8 (TreeStar, Ashland, Oreg.)."}, "[2]": {"system": "STAT1 and target genes IFIT3, OAS1 and TRIM22 in OCI-AML2 cells", "assay": "Gene expression by Q-RT-PCR, OCI-AML2", "format": "cell-based, human", "conditions": "pre-treatment with NAC", "procedure": "Leukemia cells were treated with buffer control or ivermectin (3 μM) for 30 and 40 hours. After treatment, cells were harvested, total RNA was isolated. Total RNA (10 μg) was used for cRNA amplification using the Invitrogen SuperScript kit (Life Technologies, Inc., Burlington, ON, Canada). Amplification and biotin labeling of antisense cRNA was performed using the Enzo® BioArray™ High Yield™ RNA transcript labeling kit (Enzo Diagnostics, Farmingdale, N.Y., USA), according to the manufacturer's instructions. RNA was then hybridized to Affymetrix HG U133 Plus 2.0 gene expression oligonucleotide arrays (Affymetrix, Santa Clara, Calif., USA). Microarray slides were scanned using the GeneArray 2500 scanner (Agilent Technologies). Microarray data were analyzed using GeneSpring GX v10.0 (Agilent), and lists of genes deregulated>2-fold after 30 and 40 hr ivermectin treatment were derived. Pathways and gene ontology analyses were carried out using Ingenuity Pathways Analysis (www.ingenuity.com); and the Database for Annotation, Visualization and Integrated Discovery (DAVID; http://david.abcc.ncifcrf.gov). […]\nGene expression changes were evaluated in OCI AML2, 0937, HL60, DU145 and PPC-1 cells by real-time Q-RT-PCRas described previously^15, 47. The expression level of STAT1A, STAT1B, TRIM22, OAS1 and IFIT3 before and after incubation of leukemia cells with ivermectin was evaluated."}, "OCI-AML2 cells [3]": {"system": "OCI-AML2 cells", "assay": "Reactive oxygen species, Carboxy-H2DCFDA staining, OCI-AML2", "format": "cell-based, human", "conditions": "increasing concentrations, flow cytometry", "procedure": "Data were analyzed with FlowJo version 8.8 (TreeStar, Ashland, Oreg.)."}, "leukemia cells": {"system": "leukemia cells", "assay": "Combination of IVM with albendazole, combination index", "format": "cell-based"}}, "note": "Peptide text beside a SMILES is read from it. * marks the point of attachment. Cbz = O=C(OCc1ccccc1)*; CH2F = FC*"}
{"smiles": "COC(=O)C[C@H](NC(=O)[C@H](C)NC(=O)[C@@H](NC(=O)OCc1ccccc1)C(C)C)C(=O)CF", "note": "[z-VAD-fmk] (Cbz-Val-Ala-Asp(OMe)-CH2F)", "values": [{"measurement": "effect of pan-caspase inhibitor co-treatment on ivermectin-induced cell death", "setting": "OCI-AML2 cells [1]; co-treatment with ivermectin, 24 hours, Annexin V-PI", "result": "abrogated cell death"}]}
{"smiles": "CC(=O)N[C@@H](CS)C(=O)O", "note": "[NAC, N-acetyl-L-Cysteine]", "values": [{"measurement": "effect of free radical scavenger on IVM-induced cell death", "setting": "OCI-AML2 cells [1]; treated with IVM along with NAC", "result": "abrogated IVM-induced cell death"}, {"measurement": "effect of NAC pre-treatment on ivermectin upregulation of STAT1 genes", "setting": "[2]", "result": "blocked their upregulation"}]}
{"smiles": "Nc1ccn([C@@H]2O[C@H](CO)[C@@H](O)[C@@H]2O)c(=O)n1", "note": "[cytarabine]", "values": [{"measurement": "ROS production", "setting": "OCI-AML2 cells [3]", "result": "increase ROS production"}]}
{"smiles": "CCCSc1ccc2nc(NC(=O)OC)[nH]c2c1", "note": "[albendazole]", "values": [{"measurement": "CI value at the ED25", "setting": "leukemia cells", "result": 1.59}, {"measurement": "CI value at the ED75", "setting": "leukemia cells", "result": 0.89}, {"measurement": "drug interaction with IVM", "setting": "leukemia cells", "result": "antagonized the anti-leukemic effects of IVM"}]}
{"smiles": "COc1cccc2c1C(=O)c1c(O)c3c(c(O)c1C2=O)C[C@@](O)(C(C)=O)C[C@@H]3O[C@H]1C[C@H](N)[C@H](O)[C@H](C)O1", "note": "[daunorubicin]", "values": [{"measurement": "ROS production", "setting": "OCI-AML2 cells [3]", "result": "increase ROS production"}]}
{"smiles": "O=C(O)CN(CCN(CC(=O)O)CC(=O)O)CC(=O)O", "note": "[EDTA]", "values": [{"measurement": "effect of calcium chelation on IVM-induced cell death", "setting": "OCI-AML2 cells [1]", "result": "did not inhibit IVM-induced cell death"}]}
{"smiles": "CC(=O)OCOC(=O)CN(CC(=O)OCOC(C)=O)c1ccccc1OCCOc1ccccc1N(CC(=O)OCOC(C)=O)CC(=O)OCOC(C)=O", "note": "[BAPTA-AM]", "values": [{"measurement": "effect of calcium chelation on IVM-induced cell death", "setting": "OCI-AML2 cells [1]", "result": "did not inhibit IVM-induced cell death"}]}
